From PubChem BioAssay (NCI)
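Results reflect a 48-hour exposure of cells in 96-well plates to compound at five concentrations. The concentration for full growth arrest is given as TGI.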

What was measured:
Test in all cases: NCI tumour cell line growth inhibition, 48 h
786-0 renal = test system: 786-0 renal
A498 renal = test system: A498 renal
A549 NSCLC = test system: A549 NSCLC
ACHN renal = test system: ACHN renal
BT-549 breast = test system: BT-549 breast
CAKI-1 renal = test system: CAKI-1 renal
CCRF-CEM leukemia = test system: CCRF-CEM leukemia
COLO 205 colon = test system: COLO 205 colon
DLD-1 colon = test system: DLD-1 colon
DMS 114 small cell lung = test system: DMS 114 small cell lung
DMS 273 small cell lung = test system: DMS 273 small cell lung
DU-145 prostate = test system: DU-145 prostate
EKVX NSCLC = test system: EKVX NSCLC
HCC-2998 colon = test system: HCC-2998 colon
HCT-116 colon = test system: HCT-116 colon
HCT-15 colon = test system: HCT-15 colon
HL-60(TB) leukemia = test system: HL-60(TB) leukemia
HOP-18 NSCLC = test system: HOP-18 NSCLC
HOP-62 NSCLC = test system: HOP-62 NSCLC
HOP-92 NSCLC = test system: HOP-92 NSCLC
HS 578T breast = test system: HS 578T breast
HT29 colon = test system: HT29 colon
IGROV1 ovarian = test system: IGROV1 ovarian
K-562 leukemia = test system: K-562 leukemia
KM12 colon = test system: KM12 colon
KM20L2 colon = test system: KM20L2 colon
LOX IMVI melanoma = test system: LOX IMVI melanoma
LXFL 529 NSCLC = test system: LXFL 529 NSCLC
M14 melanoma = test system: M14 melanoma
MALME-3M melanoma = test system: MALME-3M melanoma
MCF7 breast = test system: MCF7 breast
MDA-MB-231 breast = test system: MDA-MB-231 breast
MDA-MB-435 = test system: MDA-MB-435
MDA-N = test system: MDA-N
MOLT-4 leukemia = test system: MOLT-4 leukemia
NCI-H226 lung = test system: NCI-H226 lung
NCI-H23 lung = test system: NCI-H23 lung
NCI-H460 lung = test system: NCI-H460 lung
NCI-H522 lung = test system: NCI-H522 lung
NCI/ADR-RES ovarian = test system: NCI/ADR-RES ovarian
OVCAR-3 ovarian = test system: OVCAR-3 ovarian
OVCAR-4 ovarian = test system: OVCAR-4 ovarian
OVCAR-5 ovarian = test system: OVCAR-5 ovarian
OVCAR-8 ovarian = test system: OVCAR-8 ovarian
P388 leukemia = test system: P388 leukemia
P388/ADR leukemia = test system: P388/ADR leukemia
PC-3 prostate = test system: PC-3 prostate
RPMI-8226 leukemia = test system: RPMI-8226 leukemia
RXF 393 renal = test system: RXF 393 renal
RXF-631 renal = test system: RXF-631 renal
SF-268 CNS = test system: SF-268 CNS
SF-295 CNS = test system: SF-295 CNS
SF-539 CNS = test system: SF-539 CNS
SK-MEL-2 melanoma = test system: SK-MEL-2 melanoma
SK-MEL-28 melanoma = test system: SK-MEL-28 melanoma
SK-MEL-5 melanoma = test system: SK-MEL-5 melanoma
SK-OV-3 ovarian = test system: SK-OV-3 ovarian
SN12C renal = test system: SN12C renal
SN12K1 renal = test system: SN12K1 renal
SNB-19 CNS = test system: SNB-19 CNS
SNB-75 CNS = test system: SNB-75 CNS
SNB-78 CNS = test system: SNB-78 CNS
SR leukemia = test system: SR leukemia
SW-620 colon = test system: SW-620 colon
T-47D breast = test system: T-47D breast
TK-10 renal = test system: TK-10 renal
U251 CNS = test system: U251 CNS
UACC-257 melanoma = test system: UACC-257 melanoma
UACC-62 melanoma = test system: UACC-62 melanoma
UO-31 renal = test system: UO-31 renal
XF 498 CNS = test system: XF 498 CNS

C[C@]12C=CC(=O)C=C1CC[C@@H]1[C@@H]2CC[C@]2(C)OC(=O)CC[C@@H]12
TGI (786-0 renal): > 500 µM
TGI (A498 renal): 496 µM
TGI (A549 NSCLC): 478 µM
TGI (ACHN renal): > 500 µM
TGI (BT-549 breast): > 500 µM
TGI (CAKI-1 renal): > 404 µM
TGI (CCRF-CEM leukemia): > 500 µM
TGI (COLO 205 colon): > 500 µM
TGI (DLD-1 colon): > 500 µM
TGI (DMS 114 small cell lung): > 500 µM
TGI (DMS 273 small cell lung): > 500 µM
TGI (DU-145 prostate): > 500 µM
TGI (EKVX NSCLC): > 500 µM
TGI (HCC-2998 colon): > 409 µM
TGI (HCT-116 colon): > 482 µM
TGI (HCT-15 colon): > 500 µM
TGI (HL-60(TB) leukemia): 476 µM
TGI (HOP-18 NSCLC): 232 µM
TGI (HOP-62 NSCLC): > 471 µM
TGI (HOP-92 NSCLC): 500 µM
TGI (HS 578T breast): > 500 µM
TGI (HT29 colon): > 500 µM
TGI (IGROV1 ovarian): > 475 µM
TGI (K-562 leukemia): > 500 µM
TGI (KM12 colon): > 500 µM
TGI (KM20L2 colon): > 470 µM
TGI (LOX IMVI melanoma): > 500 µM
TGI (LXFL 529 NSCLC): > 500 µM
TGI (M14 melanoma): > 500 µM
TGI (MALME-3M melanoma): > 500 µM
TGI (MCF7 breast): > 500 µM
TGI (MDA-MB-231 breast): > 500 µM
TGI (MDA-MB-435): > 500 µM
TGI (MDA-N): > 500 µM
TGI (MOLT-4 leukemia): > 500 µM
TGI (NCI-H226 lung): > 493 µM
TGI (NCI-H23 lung): 499 µM
TGI (NCI-H460 lung): > 500 µM
TGI (NCI-H522 lung): 457 µM
TGI (NCI/ADR-RES ovarian): > 500 µM
TGI (OVCAR-3 ovarian): > 500 µM
TGI (OVCAR-4 ovarian): > 500 µM
TGI (OVCAR-5 ovarian): > 500 µM
TGI (OVCAR-8 ovarian): 498 µM
TGI (P388 leukemia): > 486 µM
TGI (P388/ADR leukemia): 449 µM
TGI (PC-3 prostate): > 500 µM
TGI (RPMI-8226 leukemia): > 500 µM
TGI (RXF 393 renal): > 485 µM
TGI (RXF-631 renal): > 500 µM
TGI (SF-268 CNS): > 500 µM
TGI (SF-295 CNS): > 500 µM
TGI (SF-539 CNS): > 476 µM
TGI (SK-MEL-2 melanoma): > 488 µM
TGI (SK-MEL-28 melanoma): > 500 µM
TGI (SK-MEL-5 melanoma): > 477 µM
TGI (SK-OV-3 ovarian): > 500 µM
TGI (SN12C renal): > 500 µM
TGI (SN12K1 renal): 498 µM
TGI (SNB-19 CNS): > 500 µM
TGI (SNB-75 CNS): > 487 µM
TGI (SNB-78 CNS): > 500 µM
TGI (SR leukemia): > 489 µM
TGI (SW-620 colon): > 496 µM
TGI (T-47D breast): > 500 µM
TGI (TK-10 renal): > 500 µM
TGI (U251 CNS): > 500 µM
TGI (UACC-257 melanoma): > 500 µM
TGI (UACC-62 melanoma): 500 µM
TGI (UO-31 renal): > 500 µM
TGI (XF 498 CNS): 373 µM
